Literature values as cited in US20070293534A1, “Process for the preparation of mivacurium chloride” (FARMABIOS S.P.A., priority 2006, published 2007).

Details: for neuromuscolar blocking potencies compared with each other: trans-trans versus cis-trans diastereoisomer

Row | Compound | neuromuscolar blocking potency relative to the other two diastereoisomers (fraction of the potency of the trans-trans and cis-trans diastereoisomers, estimated) | neuromuscolar blocking potencies compared with each other
1 | COc1cc2c(cc1OC)[C@@H](Cc1cc(OC)c(OC)c(OC)c1)[N@@+](C)(CCCOC(=O)CC/C=C/CCC(=O)OCCC[N@@+]1(C)CCc3cc(OC)c(OC)cc3[C@H]1Cc1cc(OC)c(OC)c(OC)c1)CC2.[Cl-].[Cl-] (single isomer, unassigned) [cis-cis diastereoisomer] | approximately one tenth | –
2 | COc1cc2c(cc1OC)[C@@H](Cc1cc(OC)c(OC)c(OC)c1)[N@@+](C)(CCCOC(=O)CC/C=C/CCC(=O)OCCC[N@+]1(C)CCc3cc(OC)c(OC)cc3[C@H]1Cc1cc(OC)c(OC)c(OC)c1)CC2.[Cl-].[Cl-] [cis-trans] | – | not significantly different from each other
3 | COc1cc2c(cc1OC)[C@@H](Cc1cc(OC)c(OC)c(OC)c1)[N@+](C)(CCCOC(=O)CC/C=C/CCC(=O)OCCC[N@+]1(C)CCc3cc(OC)c(OC)cc3[C@H]1Cc1cc(OC)c(OC)c(OC)c1)CC2.[Cl-].[Cl-] [trans-trans] | – | not significantly different from each other
